Data: patent publication US6350751B1, “Therapeutic agents” (Pfizer Inc., priority 1999, dated 2002)

Tests used:
[1] = investigation of hydrate and polymorph formation of salts; format: physicochemical; conditions: for formation of crystalline hydrates: under a range of conditions
Text: Hydrated salts can provide particular issues in processing, especially during for example the milling and/or drying stages. It has been disclosed that the tendency of organic molecules to hydrate can be predicted from their molecular structure, “Hydration in organic crystals: prediction from molecular structure”, Desiraju, Gautam R. Sch. Chem., Univ. Hyderabad, Hyderabad, 500 134, India. J. Chem. Soc., Chem. Commun. (1991), Issue 6, 426-8. CODEN: JCCCAT; ISSN: 0022-4936. (EN) CAN 114:237859. […] Several of the salts investigated form hydrates.
(§1) The problem of selecting a pharmaceutically acceptable salt form for 3-ethyl-5-[5-(4-ethylpiperazin-1-ylsulphonyl)-2-(2-methoxyethoxy) pyridin-3-yl]-2-(pyridin-2-yl)methyl-2,6-dihydro-7H-pyrazolo[4,3-d]pyrimidin-7-one has been solved by the surprising finding that the anhydrous para-toluene sulphonate salt of formula (I) meets the above criteria for a pharmaceutically acceptable salt. […] This is particularly surprising as initial predictions would indicate that the toslyate salt would form a hydrate, especially given the fact that the besylate salt and other salts investigated hydrated as predicted.
4-{6-Ethoxy-5-[3-ethyl-6,7-dihydro-7-oxo-2-(2-pyridylmethyl)-2H-pyrazolo[4,3-d]pyrimidin-5-yl]-3-pyridylsulfonyl}1-ethylpiperazine (100 g, 0.16 mol) was heated in 2-butanone/6.0% water (600 mL) to 50° C. yielding a pale yellow solution. The reaction mixture was heated to azetropically distil of 160 ml of solvent to remove water. The distilled solution was warmed to 60° C. and the acid solution of p-toluenesulfonic acid monohydrate (31.11 g, 0.16 mol) dissolved in 2-butanone (140 mL) was added over an hour. During the addition of the acid slow crystallisation was observed. The reaction mixture was slowly cooled from 60° C. to 0-5° C. over three hours, and stirred for a further hour, then filtered off the solid, washed with 2-butanone (200 mL) and dried under vacuum at 50° C. to afford the title compound (116 g, 93.7%) as a white solid. Mpt 240° C. (DMSOd6): 1.20 (6H, m), 2.23 (3H, st), 2.75 (2H, m), 2.97 (2H, q), 3.18 (4H, m), 3.35 (3H, s), 3.55 (2H, m), 3.68 (2H, m), 3.83 (2H, m), 4.59 (2H, m), 5.70 (2H, s), 7.08 (2H, d), 7.20 (1H, d), 7.34 (1H, m), 7.43 (2H, d), 7.80 (1H, m), 8.35 (1H, d), 8.70 (1H, d), 8.74 (1H, d). […] Mpt quoted +/−5° C. preferably +/−2° C. […] Additional experiments have shown that on re-slurrying in a mixture of methyl ethyl ketone and water these further polymorphs can be converted to the compound of Example 1.

[2] = stability of the salt (dosage form, drying and milling, drug substance); format: physicochemical
Text: as §1

number of anhydrous polymorphs [1]	physical dosage form stability [2]	further polymorphs detected via differential scanning calorimetry (DSC) ([1]; under certain conditions, convertible to Example 1 form by re-slurrying in methyl ethyl ketone and water)	SMILES	formation of crystalline hydrates [1]	drug substance stability profile [2]	stability during drying and milling processes [2]
at least 5			CCc1c2nc(-c3cc(S(=O)(=O)N4CCN(CC)CC4)cnc3OCCOC)[nH]c(=O)c2nn1Cc1ccccn1.O=S(=O)(O)c1ccccc1 [besylate salt, besylate salt of 3-ethyl-5-[5-(4-ethylpiperazin-1-ylsulphonyl)-2-(2-methoxyethoxy)pyridin-3-yl]-2-(pyridin-2-yl)methyl-2,6-dihydro-7H-pyrazolo [4,3-d]pyrimidin-7-one, reference compound]	a hydrated polymorph of the besylate salt is indeed formed		
	good physical dosage form stability	at least two further polymorphs	CCc1c2nc(-c3cc(S(=O)(=O)N4CCN(CC)CC4)cnc3OCCOC)[nH]c(=O)c2nn1Cc1ccccn1 [Example 1]	does not appear to form crystalline hydrates	desirable drug substance stability profile	demonstrates stability during drying and milling processes
